Data set [1] relates to sandwich-cultured rat hepatocytes. As to the kind of experiment: Intrinsic biliary clearance in sandwich-cultured rat hepatocytes. Conditions: for Observed Cl (ml/min/Kg) BSA: measured in the presence of BSA. The text has this: Representative calculations that can be employed in accordance with the presently disclosed subject matter include the calculations of a biliary excretion index and a biliary clearance value. […] In some embodiments, the BEI is a calculation of the uptake and excretion of the candidate compound as follows: 100%×{(uptake in the culture with intact bile canaliculi minus uptake within hepatocytes only in the Ca^2+-free culture) divided by (uptake in the culture with intact bile canaliculi)}. In some embodiments, the biliary clearance calculation is performed as follows: (uptake in the culture with intact bile canaliculi minus uptake within hepatocytes only in the Ca^2+-free culture) divided by (time of incubation multiplied by the concentration of the candidate compound in the buffer medium). In some embodiments, a biliary clearance value can be calculated as the ratio of the mass in the bile canaliculi and the area under the curve (AUC) in culture medium, wherein the AUC represents the integral of candidate compound in the medium from time 0 to time T (time can be measure in any desired units, and is usually measured in minutes). Indeed, the term AUC can refer to the following equation: […]
The data for each compound was determined in sandwich-cultured rat hepatocytes at a concentration of 1 μM and an exposure time of 10 minutes in buffer (no protein), in buffer with 4% BSA, or in rat serum.
This latter method is the current industry standard.

A further data set deals with Rat Hepatocytes. As to the kind of experiment: Hepatic intracellular concentration (ICC) in rat hepatocytes, observed vs predicted. Conditions: for Observed ICC (uM) BSA: one-step method with BSA. Type of data set: in vitro ADME. An excerpt: The hepatic intracellular concentration (ICC) of a compound, which reflects the balance of the uptake, metabolism, and efflux out of the cell, can also be determined in the absence and presence of protein.

The target of another data set is 4% BSA (Bos taurus, UniProt P02769). As to the kind of experiment: Free fraction by equilibrium dialysis in 4% BSA. The format is in vitro ADME. Conditions: bovine, DPDPE line: 1 uM.
Data set [2] in a line: Free fraction by equilibrium dialysis in serum. The format is in vitro ADME. Conditions: DPDPE line: 1 uM; for fraction unbound: serum. (In general: Equilibrium dialysis compares concentrations on both sides of a semipermeable membrane.)
Description: (§5) The free fraction is the amount of compound that is considered thermodynamically free in solution compared to the amount which is considered to be thermodynamically bound to the albumin proteins.
The conditions of data set [3]: cited from earlier work.
The next data set concerns human hepatocytes. As to the kind of experiment: Intracellular concentration in human hepatocytes in the presence of albumin protein. Type of data set: in vitro ADME. The text has this: The observed effects of protein on the intracellular concentration, could lead to an over- or under-prediction of a compound's effect, drastically changing the expected clinical outcome. […] However, the intracellular concentrations never achieved high enough levels to result in hepatotoxic effects. […] Since the effect of protein was unanticipated and not predictable, it is desirable to expose the cell to protein during the experiment.

The next data set has as its target CYP2C9 (Homo sapiens, UniProt P11712). The protocol:
(§1) Sandwich-Cultured Hepatocytes (SCH) were prepared using freshly isolated hepatocytes or cryopreserved hepatocytes. Freshly isolated hepatocytes were plated on 24-well cell culture plates, rinsed and fed with the appropriate species specific Qualyst Transporter Solutions (QTS, Durham, North Carolina, United States of America) propriety culture medium (QualGro™). Cells were maintained in the appropriate species specific medium until consumed in studies.
(§2) Cryopreserved hepatocytes were thawed following manufacturer's thawing instructions. Cryopreserved hepatocytes were subsequently suspended in QTS propriety hepatocyte seeding medium (QualGro™ Seeding Medium) at a density of 0.7-0.8 million viable cells/mL onto BioCoat® 24-well cell culture plates. Following plating, cells were allowed to attach for 2-4 hours, rinsed and fed with warm (37° C.) seeding medium. Eighteen to 24 hours later, cells were fed and overlaid with the appropriate species specific QTS propriety culture medium (QualGro™) supplemented with extracellular matrix (ECM), Matrigel® (0.25 mg/mL). Cells were maintained in QualGro™ Hepatocyte Culture Medium until consumed in studies.
(§3) Cells were cultured as described above through day 6 of culture. On day 7 of culture, spent culture medium was aspirated and replaced with HBSS incubation solution with or without 4% bovine serum albumin (BSA). […] In situ incubations were performed in cell culture incubators (37° C.; 5% CO2; 100% humidity) shaking at 120 rpm for 20-30 minutes. Following the incubation period, incubation solutions were collected and stored at −80° C. until processed for bioanalysis.
(§4) In situ incubations were analyzed for the detection of P450 mediated metabolite formation of hydroxymidazolam from midazolam and hydroxyibuprofen from ibuprofen. Briefly, a volume of 300 μL of internal standard solution (methanol containing 25 nM triazolam and d3-ibuprofen) and a volume of 100 μL of HBSS or HBSS plus 4% BSA were added to a protein precipitation plate (Millipore MDRPNP4; EDM Millipore, Billerica, Massachusetts, United States of America) stacked on a 96 deep well block. The plate was allowed to shake for 1 to 2 minutes prior to centrifugation for collection of the filtered supernatant. The sample filtrate was evaporated to dryness and the samples were reconstituted in 200 μL sample diluent, 40/60 methanol/10 mM ammonium acetate and mixed for at least 20 min on a plate shaker. The reconstituted samples were transferred to a Millipore 0.45 μm filter plate (Millipore MSHVN45) and filtered into a Costar 3957 plate by centrifugation and sealed with a silicone capmat prior to LC-MS/MS analysis.

The test system of the next data set is CYP3A4. How it is done:
as §1, §2, §3, §4

Setting [4] is: absence of protein (HBSS), adjusted with free fraction of Table 1, 1 μM.
Where [5] appears, read: HBSS value adjusted with free fraction, DPDPE 10 uM.

Where two headings read alike, the source gives them in different places.

Broadly, the fraction unbound is the share of the substance not bound to proteins or other matrix.

Chain of 4% BSA (P02769 25-607): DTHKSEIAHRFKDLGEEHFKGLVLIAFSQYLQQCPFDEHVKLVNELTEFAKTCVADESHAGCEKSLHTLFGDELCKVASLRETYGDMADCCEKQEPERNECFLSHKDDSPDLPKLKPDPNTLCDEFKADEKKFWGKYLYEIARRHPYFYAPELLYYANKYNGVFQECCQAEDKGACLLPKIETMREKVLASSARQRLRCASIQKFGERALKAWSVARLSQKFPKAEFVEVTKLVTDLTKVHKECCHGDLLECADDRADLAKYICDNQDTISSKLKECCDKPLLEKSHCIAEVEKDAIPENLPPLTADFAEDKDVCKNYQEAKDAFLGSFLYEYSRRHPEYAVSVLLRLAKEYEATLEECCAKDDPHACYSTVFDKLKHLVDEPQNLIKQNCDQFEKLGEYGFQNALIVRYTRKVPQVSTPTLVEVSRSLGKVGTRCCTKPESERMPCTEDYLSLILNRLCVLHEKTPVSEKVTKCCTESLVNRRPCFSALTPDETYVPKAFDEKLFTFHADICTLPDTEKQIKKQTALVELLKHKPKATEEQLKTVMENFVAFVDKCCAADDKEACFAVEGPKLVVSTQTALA
Chain of CYP2C9 (P11712 whole entry): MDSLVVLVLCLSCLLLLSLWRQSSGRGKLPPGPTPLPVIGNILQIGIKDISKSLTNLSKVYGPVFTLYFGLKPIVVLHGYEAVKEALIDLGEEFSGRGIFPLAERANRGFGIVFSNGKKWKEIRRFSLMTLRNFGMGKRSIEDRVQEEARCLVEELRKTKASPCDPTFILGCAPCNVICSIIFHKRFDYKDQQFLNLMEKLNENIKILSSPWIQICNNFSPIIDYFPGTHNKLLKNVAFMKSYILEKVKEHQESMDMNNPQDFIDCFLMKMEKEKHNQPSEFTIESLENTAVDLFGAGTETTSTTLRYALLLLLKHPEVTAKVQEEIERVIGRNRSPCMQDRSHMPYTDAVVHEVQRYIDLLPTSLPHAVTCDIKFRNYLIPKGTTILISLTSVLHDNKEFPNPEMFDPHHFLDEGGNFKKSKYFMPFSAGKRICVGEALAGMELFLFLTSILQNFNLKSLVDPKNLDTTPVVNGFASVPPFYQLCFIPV
Description for 4% BSA: as §5

In data set [1], `C[C@H]1O[C@@H](O[C@H]2[C@@H](O)C[C@H](O[C@H]3[C@@H](O)C[C@H](O[C@H]4CC[C@@]5(C)[C@H](CC[C@@H]6[C@@H]5C[C@@H](O)[C@]5(C)[C@@H](C7=CC(=O)OC7)CC[C@]65O)C4)O[C@@H]3C)O[C@@H]2C)C[C@H](O)[C@@H]1O` [Digoxin] showed an Intrinsic Biliary Clearance, BSA of 9.25 mL/min/kg. In data set [1] (rat), the Intrinsic Biliary Clearance, No Protein came to 10.4 mL/min/kg and the “Intrinsic Biliary Clearance, Serum” value is on record as 5.12. In addition, the “Predicted Cl (ml/min/Kg) HBSS” value in data set [1] (rat, 10 min, 1 μM) was 8.85 mL/min/kg. In addition, the “Predicted ICC (uM) HBSS” value in the data set on Rat Hepatocytes (setting [4]) is 1.59 µM. Further, the “Observed ICC (uM) BSA” value in the data set with Rat Hepatocytes (1 μM) was 1.29 µM. In addition, the fraction unbound at 4% BSA is 0.852. In addition, in data set [2], the “Free Fraction in Serum” value amounted to 0.727.

For `CCCc1nc2c(C)cc(-c3nc4ccccc4n3C)cc2n1Cc1ccc(-c2ccccc2C(=O)O)cc1` [telmisartan], the “Toxicity associated with its use (in vivo data)” value in data set [3] was “no known toxicity”. Besides, in the data set with human hepatocytes, the “Intracellular concentration in presence of protein greater than predicted from protein-free data adjusted by free fraction” value was 100 ×.

For the molecule `CN(Cc1cnc2nc(N)nc(N)c2n1)c1ccc(C(=O)N[C@@H](CCC(=O)O)C(=O)O)cc1` [Methotrexate], in data set [1], the Intrinsic Biliary Clearance, BSA is 0.19 mL/min/kg. Moreover, the Intrinsic Biliary Clearance, No Protein in data set [1] (rat) stood at 0.54 mL/min/kg. For the same molecule, in data set [1] (rat, 10 min, 1 μM), the “Predicted Cl (ml/min/Kg) HBSS” value was 0.23 mL/min/kg. Also, the “Intrinsic Biliary Clearance, Serum” value in data set [1] (rat) came to 0.91. Besides, the “Predicted ICC (uM) HBSS” value with Rat Hepatocytes (setting [4]) is 0.48 µM. The “Observed ICC (uM) BSA” value with Rat Hepatocytes (1 μM) was 0.47 µM. In addition, the fraction unbound on 4% BSA was 0.428; in data set [2], 0.499.

As for `OC(Cn1cncn1)(Cn1cncn1)c1ccc(F)cc1F` [Fluconazole], on CYP2C9, the “CYP2C9 enzyme activity reduced to % of control” value is given as 24.4-45.1 % of control.

As to `CC(=O)N1CCN(c2ccc(OCC3COC(Cn4ccnc4)(c4ccc(Cl)cc4Cl)O3)cc2)CC1` (stereo not drawn) [Ketoconazole], the “CYP3A4/5 Mean % Remaining” value in the data set with CYP3A4 (4% BSA, inhibitor 0.0500 μM) stood at 54.6%; with CYP3A4 (4% BSA, inhibitor 0.250 μM) it was 40.8%; with CYP3A4 (No BSA, inhibitor 0.050 μM), 45.1%; in the data set with CYP3A4 (No BSA, inhibitor 0.250 μM), 24.4%.

Take `CCCCC(=O)N(Cc1ccc(-c2ccccc2-c2nnn[nH]2)cc1)[C@H](C(=O)O)C(C)C` [Valsartan]: the Intrinsic Biliary Clearance, BSA in data set [1] stood at 3.06 mL/min/kg. Moreover, in data set [1] (rat), the Intrinsic Biliary Clearance, No Protein turned out to be 4.73 mL/min/kg and the “Intrinsic Biliary Clearance, Serum” value is reported as 1.39. For the same molecule, in data set [1] (rat, 10 min, 1 μM), the “Predicted Cl (ml/min/Kg) HBSS” value is 0.36 mL/min/kg. The “Predicted ICC (uM) HBSS” value in the data set with Rat Hepatocytes (setting [4]) was 0.44 µM. For the same molecule, the “Observed ICC (uM) BSA” value in the data set on Rat Hepatocytes (1 μM) is 0.22 µM. For the same molecule, the fraction unbound on 4% BSA came to 0.075. The same molecule registered a fraction unbound in data set [2] of 0.004.

In the case of `CC1(C)SSC(C)(C)[C@@H](NC(=O)[C@@H](N)Cc2ccc(O)cc2)C(=O)NCC(=O)N[C@@H](Cc2ccccc2)C(=O)N[C@H]1C(=O)O` [DPDPE], the “Predicted Cl (ml/min/Kg) HBSS” value in data set [1] (setting [5]) is 4.24 mL/min/kg; in data set [1] (measured in absence of protein (HBSS), adjusted with free fraction of Table 1, 1 μM), 5.69 mL/min/kg. The “Observed Cl (ml/min/Kg) BSA” value was 2.51 mL/min/kg in data set [1] (1 μM) and 3.32 mL/min/kg in data set [1] (DPDPE 10 uM). Besides, in data set [1] (two-step prediction vs measurement with BSA, DPDPE at 1 μM), the “Predicted biliary clearance compared with observed biliary clearance” value was “over-estimated”. The “Predicted ICC (uM) HBSS” value in the data set on Rat Hepatocytes (setting [5]) was 13.63 µM; with Rat Hepatocytes (setting [4]) it was 1.42 µM. Further, the “Observed ICC (uM) BSA” value in the data set on Rat Hepatocytes (1 μM) was 1.98 µM; with Rat Hepatocytes (DPDPE 10 uM) it was 15.51 µM.

For `CC(C)c1nc(N(C)S(C)(=O)=O)nc(-c2ccc(F)cc2)c1/C=C/[C@@H](O)C[C@@H](O)CC(=O)O` [Rosuvastatin], in data set [1], the Intrinsic Biliary Clearance, BSA was 164 mL/min/kg and the “Predicted biliary clearance compared with observed biliary clearance” value is listed as “under-estimated by a significant amount”. This molecule yielded an Intrinsic Biliary Clearance, No Protein in data set [1] (rat) of 53.1 mL/min/kg. For the same molecule, the “Predicted Cl (ml/min/Kg) HBSS” value in data set [1] (rat, 10 min, 1 μM) is 7.22 mL/min/kg. The “Predicted ICC (uM) HBSS” value with Rat Hepatocytes (setting [4]) is 3.09 µM. Further, in the data set on Rat Hepatocytes (1 μM), the “Observed ICC (uM) BSA” value was 6.81 µM. On 4% BSA, this molecule yielded a fraction unbound of 0.136.

As for `O=C(O)C[C@H](O)C[C@H](O)/C=C/c1c(C2CC2)nc2ccccc2c1-c1ccc(F)cc1` [Pitavastatin], in data set [1], the Intrinsic Biliary Clearance, BSA came out at 140 mL/min/kg and the “Predicted biliary clearance compared with observed biliary clearance” value was “under-estimated by a significant amount”. Besides, in data set [1] (rat), the Intrinsic Biliary Clearance, No Protein turned out to be 52 mL/min/kg and the “Intrinsic Biliary Clearance, Serum” value was 277.50. In data set [1] (rat, 10 min, 1 μM), the “Predicted Cl (ml/min/Kg) HBSS” value is 2.44 mL/min/kg. The molecule also came in with a fraction unbound at 4% BSA of 0.047. The molecule further returned a fraction unbound in data set [2] of 0.004.

The molecule `CC[C@H](C)C(=O)O[C@H]1C[C@H](O)C=C2C=C[C@H](C)[C@H](CC[C@@H](O)C[C@@H](O)CC(=O)O)[C@H]21` [Pravastatin] showed an Intrinsic Biliary Clearance, BSA in data set [1] of 6.47 mL/min/kg. Moreover, in data set [1] (rat), the Intrinsic Biliary Clearance, No Protein came out at 7.35 mL/min/kg and the “Intrinsic Biliary Clearance, Serum” value is 2.06. In addition, in data set [1] (rat, 10 min, 1 μM), the “Predicted Cl (ml/min/Kg) HBSS” value is 5.39 mL/min/kg. At 4% BSA, this molecule gave a fraction unbound of 0.734. The fraction unbound in data set [2] was determined as 0.554.

The values above are taken from patent US12650422B2, “Utility of protein in the prediction of in vivo effects” (Qualyst Transporter Solutions, LLC, priority 2014, dated 2026).
